Among the data in US20240190860A1, “8-CYCLO-SUBSTITUTED QUINAZOLINE DERIVATIVES AS LPA RECEPTOR 2 INHIBITORS” (CHIESI FARMACEUTICI S.p.A., priority 2021, published 2024) are IC50 values, retold here.

For this test, the target named is T1, human recombinant LPA2 expressed in CHO cells (Homo sapiens, UniProt Q9HBW0).
T1 construct: expressed in transfected cells; host or cells: CHO cells (CHO-hLPA2 cell line)
The experiment in a line: FLIPR calcium mobilization assay, LPA2 antagonism in CHO-hLPA2 cells. It counts as cell-based. The settings on record: CHO-hLPA2 cells, inhibition of LPA EC80 Ca2+ response, 30 min pre-incubation; read-out: LPA2 IC50. How it is done: The effectiveness of compounds of the present invention as LPA2 antagonist can be determined at the human recombinant LPA2 expressed in CHO cells, using a FLIPR assay in 384 well format.
CHO-hLPA2 cell lines are cultured in a humidified incubator at 5% C02 in DMEM/F-12 (1:1) MIXTURE with 2 mM Glutamax, supplemented with 10% of Foetal Bovine Serum, 1 mM Sodium Pyruvate, 11 mM Hepes and 1× Penicillin/Streptomycin. CHO hLPA2 cells are seeded into black walled clear-bottom 384-well plates (#781091, Greiner Bio-One GmbH) at a density of 7,500 cells per well in 50 μl culture media and grown overnight in a 37° C. humidified CO2-incubator. Serial dilutions (1:3 or 1:4, 11 points CRC) of compounds are performed in 100% DMSO at 200× the final concentration. The compounds are diluted 1:50 prior to the experiment with Assay Buffer (20 mM HEPES, 145 mM NaCl, 5 mM KCl, 5.5 mM glucose, 1 mM MgCl2 and 2 mM CaCl2, pH 7.4 containing 0.01% Pluronic F-127) to obtain a solution corresponding to […] the final concentration in the assay (4×, 2% DMSO). The final concentration of DMSO in the assay will be 0.5% in each well. Medium is removed by aspiration and cells are then incubated with 30 μl of a loading solution containing 5 μM of the cytoplasmic Ca2+ indicator Cal-520 AM in Assay Buffer containing 2.5 mM probenecid for 30 min at 37° C. incubator (cell loading). The loaded cell plates are transferred into the FLIPR instrument and calcium responses are monitored during the on-line addition protocols. For testing of compounds, after the cell loading, 10 μl/well of 4× antagonists' solution was added onto the cells. After 30 min pre-incubation (at 37° C.), 10 μl/well of 5× concentrated LPA EC80 was added and Ca2+ mobilization responses was followed during the on-line addition protocol. Intracellular peak fluorescence values subtracted by baseline fluorescence are exported and analysed to determine IC50 values, respectively. The calcium response is expressed as percentage of the maximal inhibition of the EC80 agonist response.
The raw data (peak height expressed as relative fluorescence units) are normalized and transformed into “percent of inhibition”. Curve fitting and pIC50 (−LogIC50) estimations are carried out using a four-parameter logistic model using XLfit Software.
A general note: Calcium assays in cells follow changes in intracellular calcium, usually with a dye or a luminescent sensor.

Some results are limits rather than exact numbers.

T1 sequence (Q9HBW0 whole entry): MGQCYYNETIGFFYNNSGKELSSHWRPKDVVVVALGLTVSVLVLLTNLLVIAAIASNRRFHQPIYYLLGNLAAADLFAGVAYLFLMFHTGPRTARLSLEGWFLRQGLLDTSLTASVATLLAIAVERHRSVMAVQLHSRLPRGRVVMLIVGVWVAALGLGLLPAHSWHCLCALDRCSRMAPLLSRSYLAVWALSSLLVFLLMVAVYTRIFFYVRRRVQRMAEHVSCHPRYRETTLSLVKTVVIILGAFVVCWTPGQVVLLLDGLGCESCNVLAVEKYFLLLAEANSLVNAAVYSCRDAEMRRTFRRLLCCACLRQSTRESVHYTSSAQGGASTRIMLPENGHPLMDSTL

The IC50 is the concentration at which inhibition is half-maximal. As to `COC(=O)Nc1nc(C)c(S(=O)(=O)N2CCN(C[C@H](C)Nc3ncnc4c(-c5cccc(CN6CCCC6)c5)cccc34)CC2)s1` [Example 22, methyl N-[4-methyl-5-({4-[(2S)-2-[(8-{3-[(pyrrolidin-1-yl)methyl]phenyl}quinazolin-4-yl)amino]propyl]piperazin-1-yl}sulfonyl)-1,3-thiazol-2-yl]carbamate], the IC50 was under 10 nM.

As to `COC(=O)Nc1nc(C)c(S(=O)(=O)N2CCN(C[C@H](C)Nc3ncnc4c(-c5cccc(CN6CCN(C)CC6)c5)cccc34)CC2)s1` [Example 24, methyl N-[4-methyl-5-({4-[(2S)-2-[(8-{3-[(4-methylpiperazin-1-yl)methyl]phenyl}quinazolin-4-yl)amino]propyl]piperazin-1-yl}sulfonyl)-1,3-thiazol-2-yl]carbamate], the IC50 is under 10 nM.

As to `COC(=O)Nc1nc(C)c(S(=O)(=O)N2CCN(C[C@H](C)Nc3ncnc4c(-c5cncc(CN6CCCC6)c5)cccc34)CC2)s1` [Example 25, methyl N-[4-methyl-5-({4-[(2S)-2-[(8-{5-[(pyrrolidin-1-yl)methyl]pyridin-3-yl}quinazolin-4-yl)amino]propyl]piperazin-1-yl}sulfonyl)-1,3-thiazol-2-yl]carbamate], the IC50 is under 10 nM.

On to `COC(=O)Nc1nc(C)c(S(=O)(=O)N2CCN(C[C@H](C)Nc3ncnc4c(-c5ccc(N(C)C)nc5)cccc34)CC2)s1` [Example 26, methyl N-[5-({4-[(2S)-2-({8-[6-(dimethylamino)pyridin-3-yl]quinazolin-4-yl}amino)propyl]piperazin-1-yl}sulfonyl)-4-methyl-1,3-thiazol-2-yl]carbamate], for which the 50% inhibitory concentration (IC50) was under 10 nM.

`COC(=O)Nc1nc(C)c(S(=O)(=O)N2CCN(C[C@H](C)Nc3ncnc4c(-c5c(C)n[nH]c5C)cccc34)CC2)s1` [Example 27, methyl N-[5-({4-[(2S)-2-{[8-(3,5-dimethyl-1H-pyrazol-4-yl)quinazolin-4-yl]amino}propyl]piperazin-1-yl}sulfonyl)-4-methyl-1,3-thiazol-2-yl]carbamate]: the IC50 was under 10 nM.

Take `COC(=O)Nc1nc(C)c(S(=O)(=O)N2CCN(C[C@H](C)Nc3ncnc4c(-c5ccc(C)nc5)cccc34)CC2)s1` [Example 28, methyl N-[4-methyl-5-({4-[(2S)-2-{[8-(6-methylpyridin-3-yl)quinazolin-4-yl]amino}propyl]piperazin-1-yl}sulfonyl)-1,3-thiazol-2-yl]carbamate]: the IC50 is under 10 nM.

As for `COC(=O)Nc1nc(C)c(S(=O)(=O)N2CCN(C[C@H](C)Nc3ncnc4c(-c5ccccn5)cccc34)CC2)s1` [Example 29, methyl N-[4-methyl-5-({4-[(2S)-2-{[8-(pyridin-2-yl)quinazolin-4-yl]amino}propyl]piperazin-1-yl}sulfonyl)-1,3-thiazol-2-yl]carbamate], the IC50 is under 10 nM.

For `COC(=O)Nc1nc(C)c(S(=O)(=O)N2CCN(C[C@H](C)Nc3ncnc4c(-c5cn(C)nc5C(F)(F)F)cccc34)CC2)s1` [Example 30, methyl N-[4-methyl-5-({4-[(2S)-2-({8-[1-methyl-3-(trifluoromethyl)-1H-pyrazol-4-yl]quinazolin-4-yl}amino)propyl]piperazin-1-yl}sulfonyl)-1,3-thiazol-2-yl]carbamate], the concentration for half-maximal inhibition (IC50) was under 10 nM.

`C[C@@H](CN1CCN(S(=O)(=O)c2ccc(Cl)c(Cl)c2)CC1)Nc1ncnc2c(-c3cccnc3)cccc12` [Example 31, N-[(2S)-1-[4-(3,4-dichlorobenzenesulfonyl)piperazin-1-yl]propan-2-yl]-8-(pyridin-3-yl)quinazolin-4-amine]: the IC50 was under 10 nM.

As for `CC(=O)Nc1nc(C)c(S(=O)(=O)N2CCN(C[C@H](C)Nc3ncnc4c(-c5cccnc5)cccc34)CC2)s1` [Example 32, N-[4-methyl-5-({4-[(2S)-2-{[8-(pyridin-3-yl)quinazolin-4-yl]amino}propyl]piperazin-1-yl}sulfonyl)-1,3-thiazol-2-yl]acetamide], the IC50 was under 10 nM.

Turning to `Cc1cc(C(=O)Nc2nc(C)c(S(=O)(=O)N3CCN(C[C@H](C)Nc4ncnc5c(-c6cccnc6)cccc45)CC3)s2)no1` [Example 33, 5-methyl-N-[4-methyl-5-({4-[(2S)-2-{[8-(pyridin-3-yl)quinazolin-4-yl]amino}propyl]piperazin-1-yl}sulfonyl)-1,3-thiazol-2-yl]-1,2-oxazole-3-carboxamide], the IC50 was under 10 nM.

Take `COC(=O)Nc1nc(C)c(S(=O)(=O)N2CCN(C[C@H](C)Nc3ncnc4c(-c5cnc(C)nc5)cccc34)CC2)s1` [Example 34, methyl N-[4-methyl-5-({4-[(2S)-2-{[8-(2-methylpyrimidin-5-yl)quinazolin-4-yl]amino}propyl]piperazin-1-yl}sulfonyl)-1,3-thiazol-2-yl]carbamate]: the IC50 is 10 to 100 nM.

For the compound `COC(=O)Nc1nc(C)c(S(=O)(=O)N2CCN(C[C@H](C)Nc3ncnc4c(-c5cccc(N6CCN(C)CC6)c5)cccc34)CC2)s1` [Example 35, methyl N-[4-methyl-5-({4-[(2S)-2-({8-[3-(4-methylpiperazin-1-yl)phenyl]quinazolin-4-yl}amino)propyl]piperazin-1-yl}sulfonyl)-1,3-thiazol-2-yl]carbamate], the IC50 was under 10 nM.

`COC(=O)Nc1nc(C)c(S(=O)(=O)N2CCN(C[C@H](C)Nc3ncnc4c(-c5ccc(N6CCN(C)CC6)cc5)cccc34)CC2)s1` [Example 36, methyl N-[4-methyl-5-({4-[(2S)-2-({8-[4-(4-methylpiperazin-1-yl)phenyl]quinazolin-4-yl}amino)propyl]piperazin-1-yl}sulfonyl)-1,3-thiazol-2-yl]carbamate]: the IC50 is under 10 nM.

For the compound `CC(=O)Nc1ncc(S(=O)(=O)N2CCN(C[C@H](C)Nc3ncnc4c(-c5cccnc5)cccc34)CC2)s1` [Example 37, N-[5-({4-[(2S)-2-{[8-(pyridin-3-yl)quinazolin-4-yl]amino}propyl]piperazin-1-yl}sulfonyl)-1,3-thiazol-2-yl]acetamide], the IC50 was under 10 nM.

Turning to `C[C@@H](CN1CCN(S(=O)(=O)c2ccc3[nH]c(=O)sc3c2)CC1)Nc1ncnc2c(-c3cccnc3)cccc12` [Example 38, 6-({4-[(2S)-2-{[8-(pyridin-3-yl)quinazolin-4-yl]amino}propyl]piperazin-1-yl}sulfonyl)-2,3-dihydro-1,3-benzothiazol-2-one], the 50% inhibitory concentration (IC50) is under 10 nM.

Turning to `Cc1nc(NCCN(C)C)sc1S(=O)(=O)N1CCN(C[C@H](C)Nc2ncnc3c(-c4c(C)n[nH]c4C)cccc23)CC1` [Example 39, 8-(3,5-dimethyl-1H-pyrazol-4-yl)-N-[(2S)-1-{4-[(2-{[2-(dimethylamino)ethyl]amino}-4-methyl-1,3-thiazol-5-yl)sulfonyl]piperazin-1-yl}propan-2-yl]quinazolin-4-amine], the IC50 was in the range of 10 to 100 nM.

As for `COC(=O)Nc1nc(C)c(S(=O)(=O)N2CCN(C[C@H](C)Nc3ncnc4c(-c5cncnc5)cccc34)CC2)s1` [Example 40, methyl N-[4-methyl-5-({4-[(2S)-2-{[8-(pyrimidin-5-yl)quinazolin-4-yl]amino}propyl]piperazin-1-yl}sulfonyl)-1,3-thiazol-2-yl]carbamate], the IC50 is under 10 nM.

For `COC(=O)Nc1nc(C)c(S(=O)(=O)N2CCN(C[C@H](C)Nc3ncnc4c(C5CC5)cccc34)CC2)s1` [Example 41, methyl N-[5-({4-[(2S)-2-[(8-cyclopropylquinazolin-4-yl)amino]propyl]piperazin-1-yl}sulfonyl)-4-methyl-1,3-thiazol-2-yl]carbamate], the IC50 lay within 10 to 100 nM.
